Results: patent US5208217A, “Hepatospecific insulin analogues” (Mount Sinai School of Medicine of The City University of …, priority 1991, dated 1993)

Legend:
[1] = system: FAO cells (well differentiated hepatoma cell line); assay: Inhibition of gluconeogenesis assay (glucose secretion into the medium); type: cell-based; conditions: FIG. 4
Experimental: This assay was carried out on confluent monolayers of a well differentiated hepatoma cell line (Lauris et al. Endocrinology 118:2519-2524 (1986)) in which glucose production was monitored with a commercial glucose oxidase kit (Sigma kit no. 510-A, Sigma Technical Bulletin 510, 1983). Inhibition of glucose secretion into the medium was determined as a function of the concentration of insulin or insulin analogue, and the relative potency of the analogue was defined as the ratio of the concentration of insulin to analogue required to produce half-maximal inhibition of glucose production. The cell culture and glucose production was carried out as described by Lauris et al., supra.
The potency of the synthetic insulin in inhibiting gluconeogenesis is calculated to be about 90% relative to the natural hormone.

[2] = system: isolated rat adipocytes; assay: Lipogenesis assay: conversion of [3-3H] glucose into lipids; type: cell-based; conditions: FIG. 3
Text: In this Example the materials used and the analytical procedures followed are those found in Kitagawa et al., Biochemistry, 23: 1405-1413 (1984). ^125 I-insulin for receptor binding studies and [3-^3 H] glucose for lipogenesis were obtained from DuPont NEN Research Products. Cellulose acetate membrane filters, 0.2 μm pore size, were products of Sartorius. Glass-fiber filters, Type GFC, were from Whatman. Collagenase, Type II crude, was obtained from Worthington. The scintillation fluids Filtron-X®, Hydrofluor® and Soluscint-O® were products of National Diagnostics. Crystalline bovine insulin was from Sigma, and fatty-acid free bovine serum albumin from Boehringer - Mannheim Biochemicals.
The data points represent the mean triplicate determinations in representative assays performed four times.

## [Trp^14 -A] insulin
[1]
  Concentration of agonist producing half-maximal inhibition of gluconeogenesis compared with insulin: approximately the same concentration
  Maximum inhibition of gluconeogenesis compared with insulin: same maximum inhibition
[2]
  Concentration of agonist producing half-maximal stimulation of lipogenesis compared with bovine insulin: about twice the concentration
  Maximum stimulation of lipogenesis compared with bovine insulin: same maximum stimulation
